Assay results as given in US7202265B2, “Indolinone combinatorial libraries and related products and methods for the treatment of disease” (Sugen, Inc., priority 1997, dated 2007).

tested on: human MET; assay: MET biochemical kinase assay; design: concentration or dose not given beside the values
Outline: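 MET captured from cell lysates onto plates coated with goat anti-rabbit Fc plus rabbit polyclonal anti-MET cytoplasmic-domain antibody; after washing, compounds added with kinase buffer containing ATP and divalent metal ions. Receptor tyrosine phosphorylation detected by HRP-conjugated anti-phosphotyrosine antibody, TMB colorimetric read-out.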

| SMILES | Met Kinase % Inhibition |
| --- | --- |
| CCN(CC)c1ccc(C=C2C(=O)Nc3c(Br)cc(Br)cc32)cc1 [10727/A02] | 52.0% |
| O=C1Nc2c(Br)cc(Br)cc2C1=Cc1ccccc1Sc1ccc(Cl)cc1 [10727/A05] | 29.0% |
| N#Cc1cccc(C=C2C(=O)Nc3c(Br)cc(Br)cc32)c1 [10727/A08] | 9.7% |
| O=C1Nc2ccc(I)cc2C1=Cc1cc2c(cc1Cl)OCO2 [10727/B06] | 91.0% |
| Cc1c(Br)ccc2c1C(=Cc1ccccc1Sc1ccc(Cl)cc1)C(=O)N2 [10727/C05] | 8.9% |
| CCc1cc(CC)c(C=C2C(=O)Nc3ccc(S(=O)(=O)NC)cc32)[nH]1 [10727/D03] | 24.0% |
| CNS(=O)(=O)c1ccc2c(c1)C(=Cc1cc(Cl)cc(Br)c1O)C(=O)N2 [10727/D04] | 76.0% |
| CCN(CC)c1ccc(C=C2C(=O)Nc3ccc(S(=O)(=O)Nc4ccc(C(F)(F)F)cc4)cc32)cc1 [10727/E02] | 28.0% |
| O=C1Nc2ccc(S(=O)(=O)Nc3ccc(C(F)(F)F)cc3)cc2C1=Cc1cc2c(cc1Cl)OCO2 [10727/E06] | −2.2% |
| N#Cc1cccc(C=C2C(=O)Nc3ccc(S(=O)(=O)Nc4ccc(C(F)(F)F)cc4)cc32)c1 [10727/E08] | 27.0% |
| COc1cccc(C=C2C(=O)Nc3ccc(S(=O)(=O)Nc4ccc(C(F)(F)F)cc4)cc32)c1OC [10727/E11] | −5.4% |
| CCN(CC)c1ccc(C=C2C(=O)Nc3ccc(S(=O)(=O)N4CCOCC4)cc32)cc1 [10727/F02] | 52.0% |
| CCc1cc(CC)c(C=C2C(=O)Nc3ccc(S(=O)(=O)N4CCOCC4)cc32)[nH]1 [10727/F03] | 22.0% |
| O=C1Nc2ccc(S(=O)(=O)N3CCOCC3)cc2C1=Cc1cc(Cl)cc(Br)c1O [10727/F04] | 92.0% |
| O=C1Nc2ccc(S(=O)(=O)N3CCOCC3)cc2C1=Cc1ccccc1Sc1ccc(Cl)cc1 [10727/F05] | 6.0% |
| N#Cc1ccc(C=C2C(=O)Nc3ccc(S(=O)(=O)N4CCOCC4)cc32)cc1 [10727/F09] | 9.3% |

| SMILES | Met Kinase % Inhibition |
| --- | --- |
| COc1cccc(C=C2C(=O)Nc3ccc(S(=O)(=O)N4CCOCC4)cc32)c1OC [10727/F11] | −3.0% |
| O=C1Nc2ccc(CCCl)cc2C1=Cc1cc(Cl)cc(Br)c1O [10727/G04] | 94.0% |
| O=C1Nc2ccc(CCCl)cc2C1=Cc1ccccc1Sc1ccc(Cl)cc1 [10727/G05] | 7.1% |
| COc1cccc(C=C2C(=O)Nc3ccc(CCCl)cc32)c1OC [10727/G11] | −0.8% |
| O=C1Nc2ccc(I)cc2C1=Cc1cc(C(F)(F)F)ccc1F [10728/B08] | 77.0% |
| COc1ccc(OC)c(C=C2C(=O)Nc3ccc(S(=O)(=O)Nc4ccc(C(F)(F)F)cc4)cc32)c1 [10728/E02] | 5.4% |
| O=C1Nc2ccc(S(=O)(=O)Nc3ccc(C(F)(F)F)cc3)cc2C1=Cc1c(F)cccc1C(F)(F)F [10728/E09] | 40.0% |
| COc1ccc(OC)c(C=C2C(=O)Nc3ccc(CCCl)cc32)c1 [10728/G02] | 7.1% |
| COc1cccc(OC)c1C=C1C(=O)Nc2ccc(CCCl)cc21 [10728/G03] | 8.8% |
| Cc1ccsc1C=C1C(=O)Nc2ccc(I)cc21 [10729/B05] | 51.0% |
| O=C1Nc2ccc(I)cc2C1=Cc1cccnc1 [10729/B08] | 66.0% |
| CSc1ccc(C=C2C(=O)Nc3ccc(S(=O)(=O)Nc4ccc(C(F)(F)F)cc4)cc32)cc1 [10729/E04] | 9.8% |
| O=C1Nc2ccc(S(=O)(=O)Nc3ccc(C(F)(F)F)cc3)cc2C1=Cc1cccc(Oc2ccccc2)c1 [10729/E06] | −0.7% |
| O=C1Nc2ccc(S(=O)(=O)Nc3ccc(C(F)(F)F)cc3)cc2C1=Cc1ccncc1 [10729/E09] | 85.0% |
| O=C1Nc2ccc(S(=O)(=O)Nc3ccc(C(F)(F)F)cc3)cc2C1=Cc1ccc(N2CCCC2)cc1 [10729/E10] | 7.5% |
